Measured values taken from US20080004253A1, “Thiazolopyrimidine modulators of TRPV1” (priority 2006, published 2008).

Tests used:
human TRPV1 = target: T1, human TRPV1 (Homo sapiens, UniProt Q8NER1); assay: Functional assay: block of capsaicin-induced Ca2+ influx, human assay (hTRPV1/HEK293, FLIPR); assay type: cell-based; settings: hTRPV1/HEK293 cells, 150 nM capsaicin challenge, Fluo-3 fluorescence; mean; > value = solubility limit in assay medium
T1 construct: expressed in transfected cells; host or cells: HEK293 (hTRPV1/HEK293), zeocin selection
How it was run: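 HEK293 cells stably expressing human TRPV1, fluo3-loaded, preincubated 30 min with compound (serial 3-fold dilutions from 10 μM, duplicate) in 20 μM Ca2+ buffer. Capsaicin response taken as fluo3 fluorescence change before vs 100 s after agonist; IC50 by non-linear regression, mean values; free base or TFA salt.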

rat TRPV1 = target: T2, rat TRPV1 (Rattus norvegicus, UniProt O35433); assay: Functional assay: block of capsaicin-induced Ca2+ influx, rat assay (rTRPV1/HEK293, FLIPR); assay type: cell-based; settings: rTRPV1/HEK293 cells, capsaicin challenge, Fluo-3 fluorescence; mean; > value = solubility limit in assay medium
T2 construct: expressed in transfected cells; host or cells: HEK293 (rTRPV1/HEK293), geneticin selection
How it was run: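 HEK293 cells expressing rat TRPV1, loaded with fluo3 and preincubated 30 min with compound in 20 μM Ca2+ buffer before capsaicin challenge. Block read as fluo3 fluorescence change over 100 s after agonist, 3-fold series from 10 μM in duplicate. IC50 by non-linear regression, mean values.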

T2 sequence (O35433 whole entry): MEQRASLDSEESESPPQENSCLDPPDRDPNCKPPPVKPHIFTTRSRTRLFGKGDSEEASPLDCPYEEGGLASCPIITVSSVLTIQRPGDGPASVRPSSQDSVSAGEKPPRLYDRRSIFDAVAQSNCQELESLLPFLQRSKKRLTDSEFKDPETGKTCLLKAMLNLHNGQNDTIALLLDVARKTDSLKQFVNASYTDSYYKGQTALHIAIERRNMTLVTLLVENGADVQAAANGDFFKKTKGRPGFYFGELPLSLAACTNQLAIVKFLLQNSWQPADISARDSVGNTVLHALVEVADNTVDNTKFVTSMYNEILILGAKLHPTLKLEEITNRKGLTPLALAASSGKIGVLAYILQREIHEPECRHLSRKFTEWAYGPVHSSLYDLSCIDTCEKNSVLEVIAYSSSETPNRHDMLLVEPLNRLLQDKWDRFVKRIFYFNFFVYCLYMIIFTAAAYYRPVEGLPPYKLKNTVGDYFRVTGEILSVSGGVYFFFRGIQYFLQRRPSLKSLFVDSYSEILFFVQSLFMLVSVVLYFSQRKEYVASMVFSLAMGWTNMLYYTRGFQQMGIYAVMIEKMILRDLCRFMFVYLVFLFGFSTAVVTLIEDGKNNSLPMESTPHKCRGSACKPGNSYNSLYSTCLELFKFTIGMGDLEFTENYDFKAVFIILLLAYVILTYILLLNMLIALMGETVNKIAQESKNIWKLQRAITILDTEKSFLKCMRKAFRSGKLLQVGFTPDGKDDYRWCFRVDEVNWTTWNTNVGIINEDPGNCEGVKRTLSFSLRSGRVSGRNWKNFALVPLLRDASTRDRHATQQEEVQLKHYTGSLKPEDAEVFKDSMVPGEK
T1 sequence (Q8NER1 whole entry): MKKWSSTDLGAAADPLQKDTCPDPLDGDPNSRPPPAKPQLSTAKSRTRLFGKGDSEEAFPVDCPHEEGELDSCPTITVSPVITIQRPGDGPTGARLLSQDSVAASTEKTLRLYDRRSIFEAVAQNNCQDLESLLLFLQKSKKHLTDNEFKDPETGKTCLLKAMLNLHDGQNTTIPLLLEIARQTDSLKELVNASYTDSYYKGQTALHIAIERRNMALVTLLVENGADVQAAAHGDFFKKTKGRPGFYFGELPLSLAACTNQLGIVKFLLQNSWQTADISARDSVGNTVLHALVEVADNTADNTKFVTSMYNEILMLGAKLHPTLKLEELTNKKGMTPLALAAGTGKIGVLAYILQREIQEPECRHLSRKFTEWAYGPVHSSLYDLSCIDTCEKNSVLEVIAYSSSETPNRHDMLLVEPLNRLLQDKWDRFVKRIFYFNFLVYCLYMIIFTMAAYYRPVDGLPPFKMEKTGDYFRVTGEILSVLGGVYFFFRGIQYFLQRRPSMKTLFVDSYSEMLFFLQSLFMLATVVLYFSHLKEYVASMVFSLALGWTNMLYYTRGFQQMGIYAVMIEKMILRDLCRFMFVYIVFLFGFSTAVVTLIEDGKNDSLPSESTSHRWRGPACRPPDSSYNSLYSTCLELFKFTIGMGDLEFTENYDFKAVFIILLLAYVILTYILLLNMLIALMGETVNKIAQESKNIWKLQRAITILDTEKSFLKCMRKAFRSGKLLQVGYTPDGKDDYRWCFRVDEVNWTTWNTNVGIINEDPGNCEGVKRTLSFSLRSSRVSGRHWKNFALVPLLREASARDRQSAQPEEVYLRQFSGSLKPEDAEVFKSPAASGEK

SMILES | IC50 (human TRPV1) [nM] | IC50 (rat TRPV1) [nM]
CS(=O)(=O)c1ccc(Nc2ncnc3sc(Nc4c(Cl)cc(C#N)cc4Cl)nc23)cc1 [Example 236, 3,5-Dichloro-4-[7-(4-methanesulfonyl-phenylamino)-thiazolo[5,4-d]pyrimidin-2-ylamino]-benzonitrile] | 115 | 38
CS(=O)(=O)c1ccc(Nc2ncnc3sc(Nc4c(Cl)cc(C(N)=O)cc4Cl)nc23)cc1 [Example 237, 3,5-Dichloro-4-[7-(4-methanesulfonyl-phenylamino)-thiazolo[5,4-d]pyrimidin-2-ylamino]-benzamide] | 840 | 189
FC(F)(F)c1ccc(Nc2ncnc3sc(Nc4c(Cl)cc(CN5CCOCC5)cc4Cl)nc23)cc1 [Example 238, N^2-(2,6-Dichloro-4-morpholin-4-ylmethyl-phenyl)-N^7-(4-trifluoromethyl-phenyl)-thiazolo[5,4-d]pyrimidine-2,7-diamine] | 223 | 215
FC(F)(F)c1ccc(Nc2ncnc3sc(Nc4c(Cl)cc(CN5CCC5)cc4Cl)nc23)cc1 [Example 239, N^2-(4-Azetidin-1-ylmethyl-2,6-dichloro-phenyl)-N^7-(4-trifluoromethy-phenyl)-thiazolo[5,4-d]pyrimidine-2,7-diamine] | 3420 | 3750
NCc1cc(Cl)c(Nc2nc3c(Nc4ccc(C(F)(F)F)cc4)ncnc3s2)c(Cl)c1 [Example 240, N^2-(4-Aminomethyl-2,6-dichloro-phenyl)-N^7-(4-trifluoromethyl-phenyl)-thiazolo[5,4-d]pyrimidine-2,7-diamine] | 154 | 61
COC(=O)c1cc(Cl)c(Nc2nc3c(Nc4ccc(C(F)(F)F)cc4)ncnc3s2)c(Cl)c1 [Example 241, 3,5-Dichloro-4-[7-(4-trifluoromethyl-phenylamino)-thiazolo[5,4-d]pyrimidin-2-ylamino]-benzoic acid methyl ester] | 820 | 3200
OCc1cc(Cl)c(Nc2nc3c(Nc4ccc(C(F)(F)F)cc4)ncnc3s2)c(Cl)c1 [Example 242, {3,5-Dichloro-4-[7-(4-trifluoromethyl-phenylamino)-thiazolo[5,4-d]pyrimidin-2-ylamino]-phenyl}-methanol] | 1 | 1
O=C(O)c1cc(Cl)c(Nc2nc3c(Nc4ccc(C(F)(F)F)cc4)ncnc3s2)c(Cl)c1 [Example 243, 3,5-Dichloro-4-[7-(4-trifluoromethyl-phenylamino)-thiazolo[5,4-d]pyrimidin-2-ylamino]-benzoic acid] | 4610 | 6540
Cc1nc(Nc2ccc(C(C)(C)C)cc2)c2nc(Nc3c(C)cccc3C)sc2n1 [Example 244, N^7-(4-tert-Butyl-phenyl)-N^2-(2,6-dimethyl-phenyl)-5-methyl-thiazolo[5,4-d]pyrimidine-2,7-diamine] | 12 | 3
Cc1nc(Nc2ccc(C(F)(F)F)cc2)c2nc(Nc3c(C)cccc3C)sc2n1 [Example 245, N^2-(2,6-Dimethyl-phenyl)-5-methyl-N^7-(4-trifluoromethyl-phenyl)-thiazolo[5,4-d]pyrimidine-2,7-diamine] | 6 | 5
Cc1nc(Nc2ccc(C(F)(F)F)nc2)c2nc(Nc3c(C)cccc3C)sc2n1 [Example 246, N^2-(2,6-Dimethyl-phenyl)-5-methyl-N^7-(6-trifluoromethyl-pyridin-3-yl)-thiazolo[5,4-d]pyrimidine-2,7-diamine] | 18 | 22
Cc1nc(Nc2ccc(C(F)(F)F)c(Cl)c2)c2nc(Nc3c(C)cccc3C)sc2n1 [Example 247, N^7-(3-Chloro-4-trifluoromethyl-phenyl)-N^2-(2,6-dimethyl-phenyl)-5-methyl-thiazolo[5,4-d]pyrimidine-2,7-diamine] | 35 | 19
C[C@@H](O)CNc1nc(Nc2ccc(C(F)(F)F)cc2)c2nc(Nc3c(Cl)cccc3Cl)sc2n1 [Example 250, (R)-1-[2-(2,6-Dichloro-phenylamino)-7-(4-trifluoromethyl-phenylamino)-thiazolo[5,4-d]pyrimidin-5-ylamino]-propan-2-ol] | 3.3 | 0.7
CC(C)(O)CNc1nc(Nc2ccc(C(F)(F)F)cc2)c2nc(Nc3c(Cl)cccc3Cl)sc2n1 [Example 251, 1-[2-(2,6-Dichloro-phenylamino)-7-(4-trifluoromethyl-phenylamino)-thiazolo[5,4-d]pyrimidin-5-ylamino]-2-methyl-propan-2-ol] | 290 | 110
